{"source": "ChEMBL document CHEMBL5523716", "about": "“Discovery of novel EGFR-PROTACs capable of degradation of multiple EGFR-mutated proteins” (Eur J Med Chem, 2024)", "key": {"[1]": {"test": "Antiproliferative activity against human H1975-TM cells harboring EGFR L858R/T790M/C797S mutant assessed as inhibition of cell growth incubated for 48 to 72 hrs by CCK-8 assay", "type": "functional, cell-based"}, "[2]": {"system": "von Hippel-Lindau disease tumor suppressor/Epidermal growth factor receptor (Homo sapiens), P00533+P40337 [UNDEFINED MUTATION]", "sequence (P00533 whole entry, looked up, stated change not applied)": "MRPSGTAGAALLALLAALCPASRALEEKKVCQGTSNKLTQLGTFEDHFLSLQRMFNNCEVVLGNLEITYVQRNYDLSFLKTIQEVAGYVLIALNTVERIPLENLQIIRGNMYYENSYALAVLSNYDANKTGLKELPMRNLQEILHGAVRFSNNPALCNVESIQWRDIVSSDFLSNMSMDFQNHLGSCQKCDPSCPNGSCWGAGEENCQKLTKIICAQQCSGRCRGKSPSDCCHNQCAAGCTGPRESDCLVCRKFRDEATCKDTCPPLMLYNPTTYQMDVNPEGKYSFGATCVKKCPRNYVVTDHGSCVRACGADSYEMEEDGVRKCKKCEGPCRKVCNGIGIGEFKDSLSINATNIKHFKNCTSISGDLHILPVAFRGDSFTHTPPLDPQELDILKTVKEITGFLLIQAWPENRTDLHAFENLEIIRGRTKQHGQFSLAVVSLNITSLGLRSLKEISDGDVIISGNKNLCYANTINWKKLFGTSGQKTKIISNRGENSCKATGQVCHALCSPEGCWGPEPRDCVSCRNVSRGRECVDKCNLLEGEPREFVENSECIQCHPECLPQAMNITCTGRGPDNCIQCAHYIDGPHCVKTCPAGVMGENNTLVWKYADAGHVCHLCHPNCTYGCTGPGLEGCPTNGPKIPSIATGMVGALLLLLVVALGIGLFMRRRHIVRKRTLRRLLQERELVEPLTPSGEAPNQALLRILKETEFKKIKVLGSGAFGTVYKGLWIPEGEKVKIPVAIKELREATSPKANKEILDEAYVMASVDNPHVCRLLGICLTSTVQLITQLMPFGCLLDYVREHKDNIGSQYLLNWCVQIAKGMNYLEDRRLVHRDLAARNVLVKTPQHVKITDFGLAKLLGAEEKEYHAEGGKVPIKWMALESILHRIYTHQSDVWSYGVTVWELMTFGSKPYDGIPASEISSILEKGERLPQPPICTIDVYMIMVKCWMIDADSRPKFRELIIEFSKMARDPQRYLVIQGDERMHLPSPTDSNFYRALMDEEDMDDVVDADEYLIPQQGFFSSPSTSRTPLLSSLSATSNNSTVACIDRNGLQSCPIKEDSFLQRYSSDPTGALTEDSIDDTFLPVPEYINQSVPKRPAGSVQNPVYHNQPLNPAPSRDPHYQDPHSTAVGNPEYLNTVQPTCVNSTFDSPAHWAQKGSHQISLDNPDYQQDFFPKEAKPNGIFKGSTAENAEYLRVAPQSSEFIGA", "sequence (P40337 whole entry, looked up, stated change not applied)": "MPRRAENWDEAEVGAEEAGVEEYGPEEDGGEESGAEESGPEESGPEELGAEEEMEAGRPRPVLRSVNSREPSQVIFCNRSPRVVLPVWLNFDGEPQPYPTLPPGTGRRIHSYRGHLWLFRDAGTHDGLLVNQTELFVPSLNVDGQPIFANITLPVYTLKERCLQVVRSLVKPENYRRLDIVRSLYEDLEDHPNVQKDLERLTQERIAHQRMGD", "test": "PROTAC activity at VHL/EGFR Del19 mutant in human HCC827 cells assessed as maximal EGFR degradation at 3.125 to 200 nM incubated for 72 hrs by Western blot analysis relative to control", "type": "cell-based", "details": "dose 3.125-200 nM"}, "[3]": {"target": "von Hippel-Lindau disease tumor suppressor/Epidermal growth factor receptor (Homo sapiens, UniProt P00533+P40337, T790M/L858R)", "sequence (P00533 25-1210 T790M/L858R limits assumed, stated change not applied)": "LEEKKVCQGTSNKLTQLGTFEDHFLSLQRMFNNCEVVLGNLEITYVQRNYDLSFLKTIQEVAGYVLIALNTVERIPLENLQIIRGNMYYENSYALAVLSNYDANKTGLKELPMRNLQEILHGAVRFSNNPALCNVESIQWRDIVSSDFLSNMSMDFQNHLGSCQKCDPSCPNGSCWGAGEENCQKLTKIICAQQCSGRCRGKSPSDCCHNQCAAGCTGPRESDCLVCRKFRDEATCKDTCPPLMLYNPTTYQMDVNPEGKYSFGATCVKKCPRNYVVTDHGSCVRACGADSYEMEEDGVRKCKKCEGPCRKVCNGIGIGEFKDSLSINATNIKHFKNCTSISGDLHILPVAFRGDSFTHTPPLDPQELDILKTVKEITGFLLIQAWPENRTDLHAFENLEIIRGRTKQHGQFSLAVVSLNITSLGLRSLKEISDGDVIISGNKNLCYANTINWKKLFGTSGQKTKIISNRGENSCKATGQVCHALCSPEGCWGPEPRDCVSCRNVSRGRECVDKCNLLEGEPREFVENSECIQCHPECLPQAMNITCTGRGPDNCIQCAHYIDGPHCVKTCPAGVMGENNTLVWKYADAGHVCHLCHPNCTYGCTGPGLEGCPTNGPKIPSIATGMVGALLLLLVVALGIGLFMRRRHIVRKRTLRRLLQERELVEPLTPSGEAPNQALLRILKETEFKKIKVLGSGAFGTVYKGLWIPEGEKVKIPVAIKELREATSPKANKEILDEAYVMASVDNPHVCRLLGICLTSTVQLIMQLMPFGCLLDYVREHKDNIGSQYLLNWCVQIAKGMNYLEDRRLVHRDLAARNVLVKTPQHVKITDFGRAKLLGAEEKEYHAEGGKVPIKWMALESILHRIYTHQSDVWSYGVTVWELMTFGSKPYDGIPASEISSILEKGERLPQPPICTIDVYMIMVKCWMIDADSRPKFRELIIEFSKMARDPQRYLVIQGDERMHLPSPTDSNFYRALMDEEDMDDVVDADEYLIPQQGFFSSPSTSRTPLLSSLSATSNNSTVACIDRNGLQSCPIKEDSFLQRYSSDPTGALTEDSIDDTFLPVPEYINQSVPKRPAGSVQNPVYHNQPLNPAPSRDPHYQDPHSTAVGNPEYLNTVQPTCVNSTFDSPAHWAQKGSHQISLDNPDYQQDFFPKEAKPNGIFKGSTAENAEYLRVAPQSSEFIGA", "sequence (P40337 whole entry, stated change not applied)": "as the sequence (P40337 whole entry, looked up, stated change not applied) above", "test": "PROTAC activity at VHL/EGFR L858R/T790M mutant in human NCI-H1975 cells assessed as induction of EGFR degradation incubated for 72 hrs by Western blot analysis", "type": "cell-based"}, "[4]": {"system": "A-431", "test": "Antiproliferative activity against human A-431 cells harboring EGFR wild type assessed as inhibition of cell growth incubated for 48 to 72 hrs by CCK-8 assay", "type": "functional, cell-based"}, "[5]": {"system": "von Hippel-Lindau disease tumor suppressor/Epidermal growth factor receptor (Homo sapiens), P00533+P40337 [L858R,T790M]", "test": "PROTAC activity at VHL/EGFR L858R/T790M mutant in human NCI-H1975 cells assessed as maximal EGFR degradation at 0.15 to 10 uM incubated for 72 hrs by Western blot analysis relative to control", "type": "cell-based", "details": "dose 0.15-10 µM"}, "[6]": {"system": "A549", "test": "Antiproliferative activity against human A549 cells harboring EGFR wild type assessed as inhibition of cell growth incubated for 48 to 72 hrs by CCK-8 assay", "type": "functional, cell-based"}, "[7]": {"target": "von Hippel-Lindau disease tumor suppressor/Epidermal growth factor receptor (Homo sapiens, UniProt P00533+P40337)", "sequence (P00533 whole entry, looked up, stated change not applied)": "as the sequence (P00533 whole entry, looked up, stated change not applied) above", "sequence (P40337 whole entry, looked up, stated change not applied)": "as the sequence (P40337 whole entry, looked up, stated change not applied) above", "test": "PROTAC activity at VHL/EGFR Del19 mutant in human HCC827 cells assessed as induction of EGFR degradation incubated for 72 hrs by Western blot analysis", "type": "cell-based"}, "[8]": {"system": "HCC827", "test": "Antiproliferative activity against human HCC827 cells harboring EGFR Del19 mutant assessed as inhibition of cell growth incubated for 48 to 72 hrs by CCK-8 assay", "type": "functional, cell-based"}, "[9]": {"system": "NCI-H1975", "test": "Antiproliferative activity against human NCI-H1975 cells harboring EGFR L858R/T790M double mutant assessed as inhibition of cell growth incubated for 48 to 72 hrs by CCK-8 assay", "type": "functional, cell-based"}}}
{"compound": "CCN(CC)C/C=C/C(=O)Nc1cc2c(Nc3ccc(F)c(Cl)c3)ncnc2cc1OCc1cn(CCCCCCCCCCC(=O)N[C@H](C(=O)N2C[C@H](O)C[C@H]2C(=O)NCc2ccc(-c3scnc3C)cc2)C(C)(C)C)nn1", "values": [{"measurement": "IC50", "setting": "[1]", "value": "> 20000", "unit": "nM"}, {"measurement": "Emax", "setting": "[2]", "value": 99, "unit": "%"}, {"measurement": "DC50", "setting": "[3]", "value": 380, "unit": "nM"}, {"measurement": "IC50", "setting": "[4]", "value": "> 20000", "unit": "nM"}, {"measurement": "Emax", "setting": "[5]", "value": 93, "unit": "%"}, {"measurement": "IC50", "setting": "[6]", "value": "> 20000", "unit": "nM"}, {"measurement": "DC50", "setting": "[7]", "value": 28.7, "unit": "nM"}, {"measurement": "IC50", "setting": "[8]", "value": 15, "unit": "nM"}, {"measurement": "IC50", "setting": "[9]", "value": 380, "unit": "nM"}]}
